Each structure is given as a SMILES string.

The term Ki denotes the dissociation constant of the complex between target and ligand, obtained from inhibition or displacement.

The experiment deals with T1, Progesterone Receptor (PR) (Homo sapiens, UniProt P06401).
T1 construct: endogenous in cells; host or cells: T47D human breast mammary carcinoma cells
T1 sequence (P06401 1-933): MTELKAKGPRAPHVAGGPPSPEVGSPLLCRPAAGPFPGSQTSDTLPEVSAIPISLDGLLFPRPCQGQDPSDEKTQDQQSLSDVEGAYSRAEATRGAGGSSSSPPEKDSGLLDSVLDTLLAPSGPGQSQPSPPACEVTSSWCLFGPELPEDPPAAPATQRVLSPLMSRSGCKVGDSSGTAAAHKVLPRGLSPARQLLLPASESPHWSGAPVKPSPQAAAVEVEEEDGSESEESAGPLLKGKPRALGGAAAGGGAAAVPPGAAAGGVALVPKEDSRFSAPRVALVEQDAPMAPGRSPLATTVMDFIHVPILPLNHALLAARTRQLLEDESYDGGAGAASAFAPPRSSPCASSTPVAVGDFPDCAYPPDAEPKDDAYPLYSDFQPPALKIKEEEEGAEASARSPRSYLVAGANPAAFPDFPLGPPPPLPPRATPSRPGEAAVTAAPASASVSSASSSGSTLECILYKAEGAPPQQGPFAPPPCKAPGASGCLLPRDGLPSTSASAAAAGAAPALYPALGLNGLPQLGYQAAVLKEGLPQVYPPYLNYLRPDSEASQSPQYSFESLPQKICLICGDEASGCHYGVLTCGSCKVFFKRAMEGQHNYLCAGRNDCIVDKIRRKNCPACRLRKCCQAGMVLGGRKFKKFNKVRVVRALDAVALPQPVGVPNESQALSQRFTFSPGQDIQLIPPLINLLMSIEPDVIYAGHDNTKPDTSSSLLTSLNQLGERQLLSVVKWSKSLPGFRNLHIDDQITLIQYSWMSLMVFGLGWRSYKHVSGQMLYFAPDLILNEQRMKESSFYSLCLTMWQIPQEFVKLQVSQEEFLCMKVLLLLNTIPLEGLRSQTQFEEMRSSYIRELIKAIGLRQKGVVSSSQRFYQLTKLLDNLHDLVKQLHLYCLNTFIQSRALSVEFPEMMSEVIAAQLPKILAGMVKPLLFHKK
Kind of experiment: In vitro functional assay for progesterone receptor (PR) antagonists: inhibition of progesterone-induced alkaline phosphatase expression in T47D cells. Format: cell-based. The following applies: antagonist format, 5 nM progesterone, Ki calculated from IC50 with the Cheng-Prusoff equation. The source says: 1.0 In vitro Functional Assay for Progesterone Receptor (PR) Antagonists, Agonists and Modulators
The assay for PR antagonism takes advantage of the extensively reported modulation of alkaline phosphatase (AP) expression in human breast T47D mammary carcinoma cells {Beck et al., D. P. (1993). The progesterone antagonist RU486 acquires agonist activity upon stimulation of cAMP signalling pathways. Proc Natl Acad Sci USA 90, 4441-4445; Fensome et al. (2002). New progesterone receptor antagonists: 3,3-disubstituted-5-aryloxindoles. Bioorg Med Chem Lett 12, 3487-3490; Zhang et al., (2002a). 6-Aryl-1,4-dihydro-benzo d1,3oxazin-2-ones: a novel class of potent, selective, and orally active nonsteroidal progesterone receptor antagonists. Journal of Medicinal Chemistry 45, 4379-4382; Zhang et al., (2003). Novel 6-aryl-1,4-dihydrobenzo d oxazine-2-thiones as potent, selective, and orally active nonsteroidal progesterone receptor agonists. Bioorganic & Medicinal Chemistry Letters 13, 1313-1316; Zhang et al., (2002b). Potent nonsteroidal progesterone receptor agonists: synthesis and SAR study of 6-aryl benzoxazines. Bioorganic & Medicinal Chemistry Letters 12, 787-790; Zhang, Z. et al., (2000). In vitro characterization of trimegestone: a new potent and selective progestin. Steroids 65, 637-643}. […] In the absence of progesterone any agonist activity is also observed as an induction of AP activity. By running the assay in two formats (+/−progesterone (P4)), compounds behaving as PR antagonists, agonists, partial agonists or modulators with mixed agonist/antagonist activity can be identified.
Briefly, T47D cells are grown by propagating in DMEM with phenol red+10% FCS+2 mM Glutamine at 37° C./5% CO2. At 70-80% confluence, the media is exchanged for phenol red free DMEM+5% CS-FCS (Assay media). Cells are incubated overnight in assay media then harvested and frozen in assay media containing 10% DMSO at 1.5e7 cells/mL in 2 mL aliquots using a Planer and immediately stored in liquid nitrogen. Vials are removed from liquid nitrogen storage and immediately thawed in a water bath at 37° C. The cell suspension is added dropwise to 20 mL of assay media, then the tube centrifuged at 1000 rpm for 4 minutes, the supernatant is discarded and the pellet re-suspended in 20 mL assay media. T47D cells are then plated at 8750 cells/well in 35 μL assay media in sufficient white solid 384 well TC plates for the assay. For the agonist format assay a further 10 μL of assay media is added to each well. These plates are then cultured for 3-6 hours at 37° C./5% CO2 before compound addition.
Test substances are prepared by in 100% DMSO, half log concentrations from 4 mM in 384 well plates 5 μL/well (referred to here as ‘grandmother plates’). Progesterone is 100 μM made up in ethanol and PBS (i.e. add 1 mL ethanol to progesterone initially to help dissolving) and stored in 0.5-1 mL aliquots at −20° C.
Using a multidrop (Thermolabsystems), 60 μL/well of buffer is added to a 384 well plate—this will be the ‘mother plate’. _Add 45 μL well buffer to grandmother plate using the multidrop (=400 μM 10% DMSO dilution). Mixed and spun to remove air bubbles. • 20 μL is taken from the grandmother plate (400 μM 10% DMSO) and added to the mother plate (=100 μM 2.5% DMSO). Mixed and spun to remove air bubbles Preparation of Max/Min:
Antagonist Min: (Checker Pattern on Plate Map) 1 μM RU-486 (FAC 0.1 μM) • 50 μL of 0.2 mM RU-486 • 10 mL Diluent Addition of Test Substance to Cell Plates • The PlateMate Plus was used to add 5 μL MAX/MIN to cell plates • Then 5 μL test substances are added from the mother plate (after removing max/min PlateMate tips: columns 1 and 24)
Addition of Agonist (5 nM Progesterone FAC) for Antagonist Format Only
25 nM progesterone in assay media is prepared from 100 μM stock (12.5 μL progesterone/50 mL media), from which 10 μL per well is transferred to the assay plate using the PlateMate Plus (already containing cells & compound). […]
As for `CCNC(=O)c1c(CC)c(-c2ccc(C#N)cc2)nn1C(C)CC` (racemic) [Example 103, (+/−)-1-sec-Butyl-3-(4-cyanophenyl)-N,4-diethyl-1H-pyrazole-5-carboxamide], the Ki was 12.7 nM.

In the case of `CCc1c(-c2ccc(C#N)cc2)nn(C(C)CC)c1C(=O)NC1CC1` (racemic) [Example 104, (+/−)-1-sec-Butyl-3-(4-cyanophenyl)-N-cyclopropyl-4-ethyl-1H-pyrazole-5-carboxamide], the Ki is 17.8 nM.

As for `CCc1c(-c2ccc(C#N)cc2)nn(C(C)CC)c1C(=O)NC` (racemic) [Example 105, (+/−)-1-sec-Butyl-3-(4-cyanophenyl)-4-ethyl-N-methyl-1H-pyrazole-5-carboxamide], the Ki is 14.2 nM.

On to `CCc1c(-c2ccc(C#N)cc2)nn(C(C)CC)c1C(=O)NCC(C)(C)O` (racemic) [Example 106, 1-sec-Butyl-3-(4-cyanophenyl)-4-ethyl-N-(2-hydroxy-2-methylpropyl)-1H-pyrazole-5-carboxamide], for which the Ki was 23.8 nM.

Take `CCc1c(-c2ccc(C#N)cc2)nn(C(C)CC)c1C(=O)NCC(=O)NC` (racemic) [Example 109, 1-sec-Butyl-3-(4-cyanophenyl)-4-ethyl-N-[2-(methylamino)-2-oxoethyl]-1H-pyrazole-5-carboxamide]: the inhibition constant Ki is 199 nM.

As to `CCNC(=O)c1c(C)c(-c2ccc(C#N)cc2)nn1C1CCOC1` (single isomer, unassigned) [Example 76 Ent 1, 3-(4-Cyanophenyl)-N-ethyl-4-methyl-1-(tetrahydrofuran-3-yl)-1H-pyrazole-5-carboxamide], the Ki was 22.3 nM.

With `CCNC(=O)c1c(C)c(-c2ccc(C#N)cc2)nn1C1CCOC1` (single isomer, unassigned) [Example 76 Ent 2, 3-(4-Cyanophenyl)-N-ethyl-4-methyl-1-(tetrahydrofuran-3-yl)-1H-pyrazole-5-carboxamide], the Ki is 147 nM.

Take `Cc1c(-c2ccc(C#N)cc2)nn(C2CCOC2)c1C(=O)NC(C)C` (single isomer, unassigned) [Example 77 Ent 1, 3-(4-Cyanophenyl)-N-isopropyl-4-methyl-1-(tetrahydrofuran-3-yl)-1H-pyrazole-5-carboxamide]: the Ki was 69.5 nM.

Regarding `Cc1c(-c2ccc(C#N)cc2)nn(C2CCOC2)c1C(=O)NC(C)C` (single isomer, unassigned) [Example 77 Ent 2, 3-(4-Cyanophenyl)-N-isopropyl-4-methyl-1-(tetrahydrofuran-3-yl)-1H-pyrazole-5-carboxamide], the Ki is 102 nM.

In the case of `Cc1c(-c2ccc(C#N)cc2)nn(C2CCOC2)c1C(=O)NC[C@H](C)O` (single isomer, unassigned) [Example 78 Diast 1], the inhibitory constant (Ki) is greater than 242 nM.

Consider `Cc1c(-c2ccc(C#N)cc2)nn(C2CCOC2)c1C(=O)NC[C@H](C)O` (single isomer, unassigned) [Example 78 Diast 2], for which the inhibition constant (Ki) is 49.4 nM.

As to `Cc1c(-c2ccc(C#N)cc2)nn(C2CCOC2)c1C(=O)NC[C@@H](C)O` (single isomer, unassigned) [Example 79 Diast 1], the Ki is greater than 766 nM.

As to `Cc1c(-c2ccc(C#N)cc2)nn(C2CCOC2)c1C(=O)NC[C@@H](C)O` (single isomer, unassigned) [Example 79 Diast 2], the inhibition constant (Ki) was 163 nM.

Regarding `Cc1c(-c2ccc(C#N)cc2)nn(C2CCOC2)c1C(=O)NCC(C)(C)O` (single isomer, unassigned) [Example 80 Ent 1, 3-(4-Cyanophenyl)-N-(2-hydroxy-2-methylpropyl)-4-methyl-1-(tetrahydrofuran-3-yl)-1H-pyrazole-5-carboxamide], the Ki is 57.1 nM.

In the case of `Cc1c(-c2ccc(C#N)cc2)nn(C2CCOC2)c1C(=O)NCC(C)(C)O` (single isomer, unassigned) [Example 80 Ent 2, 3-(4-Cyanophenyl)-N-(2-hydroxy-2-methylpropyl)-4-methyl-1-(tetrahydrofuran-3-yl)-1H-pyrazole-5-carboxamide], the Ki was greater than 733 nM.

On to `CCc1c(-c2ccc(C#N)cc2)nn(C(C)CC)c1C(=O)NCC(C)(C)O` (single isomer, unassigned) [Example 106 Ent 1, 1-sec-Butyl-3-(4-cyanophenyl)-4-ethyl-N-(2-hydroxy-2-methylpropyl)-1H-pyrazole-5-carboxamide], for which the inhibition constant (Ki) was 14.8 nM.

On to `CCc1c(-c2ccc(C#N)cc2)nn(C(C)CC)c1C(=O)NCC(C)(C)O` (single isomer, unassigned) [Example 106 Ent 2, 1-sec-Butyl-3-(4-cyanophenyl)-4-ethyl-N-(2-hydroxy-2-methylpropyl)-1H-pyrazole-5-carboxamide], for which the Ki was 38.2 nM.

With `CCc1c(-c2ccc(C#N)cc2)nn(C(C)CC)c1C(=O)NCC(=O)NC` (single isomer, unassigned) [Example 109 Ent 1, 1-sec-Butyl-3-(4-cyanophenyl)-4-ethyl-N-[2-(methylamino)-2-oxoethyl]-1H-pyrazole-5-carboxamide], the Ki is 99 nM.

For `CCc1c(-c2ccc(C#N)cc2)nn(C(C)CC)c1C(=O)NCC(=O)NC` (single isomer, unassigned) [Example 109 Ent 2, 1-sec-Butyl-3-(4-cyanophenyl)-4-ethyl-N-[2-(methylamino)-2-oxoethyl]-1H-pyrazole-5-carboxamide], the Ki is 190 nM.

For `CCC(=O)N1CCC(NC(=O)c2c(C3CC3)c(-c3ccc(C#N)cc3)nn2C(C)C)C1` (stereo in doubt) [Example 12, 3-(4-Cyanophenyl)-4-cyclopropyl-1-isopropyl-N-[(3S)-1-propionylpyrrolidin-3-yl]-1H-pyrazole-5-carboxamide], the Ki is 17.2 nM.

Consider `CC(C)n1nc(-c2ccc(C#N)cc2)c(C2CC2)c1C(=O)NCC(C)(C)O` [Example 1, 3-(4-Cyano-phenyl)-4-cyclopropyl-N-(2-hydroxy-2-methylpropyl)-1-isopropyl-1H-pyrazole-5-carboxamide], for which the Ki is 19.8 nM.

Source of the values: patent US8232269B2, “Amide compounds useful in therapy” (Pfizer Inc., priority 2008, dated 2012).
